The values below are quoted from earlier work in US20160361293A1, “NANOSTRUCTURED COMPOSITION COMPRISING INDOMETHACINE, ITS PHARMACEUTICALLY ACCEPTABLE SALTS AND CO-CRYSTALS AND PROCESS FOR THE PREPARATION THEREOF” (DARHOLDING KFT., priority 2014, published 2016).

Experiment in data set [1]: not given
The source holds these as a separate data set.

For data set [2] the following is noted: in vivo.

In brackets after ≈: the same amount, converted by molar mass.

With `COc1ccc2c(c1)c(CC(=O)O)c(C)n2C(=O)c1ccc(Cl)cc1` [Indomethacin, 1-(4-chlorobenzoyl)-5-methoxy-2-methyl-1H-indole-3-acetic acid], where the note is “alcohol, in words”, the solubility in alcohol entry is on record as “sparingly soluble”. The water solubility (water) was 50 µg/mL (≈ 140 µM). The solubility in water entry (water, in words) is “practically insoluble”. Moreover, in data set [1] (neutral or slightly acidic media), the “stability in neutral or slightly acidic media” value is recorded as “stable”. For the same compound, the “stability in strong alkali” value in data set [1] (strong alkali) is reported as “decomposes”. The mean half-life entry in data set [2] is “about 4.5 hours”.
